Data as given in PMC3408433, “Selective Cytotoxicity of Amidinopiperidine Based Compounds Towards Burkitt’s Lymphoma Cells Involves Proteasome Inhibition” (PLoS ONE, 2012).

How the values were obtained:
[1] = system: p105 and IκBα in Ramos cells; assay: Western blot analysis of phospho-p105, p105, phospho-IκB and IκB; format: cell-based, human; conditions: total level of both molecules remained the same
Method: (§1) Ramos cells were seeded in 6-well culture plates at a concentration of 1×10^6 cells/mL and treated with the compound of interest or corresponding vehicle for 1 h, 2 h or 6 h. After the indicated time points, cells were harvested, washed in ice-cold PBS and lysed in modified RIPA buffer (50 mM Tris-HCl, pH 7.4, 150 mM NaCl, 1% NP−40, 0.25% Na-deoxycholate, 1 mM EDTA, 1 µg/mL aprotinin, 1 mM PMSF and 1× Halt Phosphatase inhibitor cocktail (Thermo Scientific, Pierce Biotechnology, IL, USA)). The lysates were sonicated, rocked on ice for 30 min and centrifuged at 13,000 rpm at 4°C for 15 min. Protein samples were electrophoresed in SDS-polyacrylamide gels and then transferred to nitrocellulose membranes. The primary antibodies used were against ubiquitin, phospho-IκBα, IκBα, p65 and caspase-3 (Cell Signaling, Danvers/MA, USA), and p105/p50 (Santa Cruz Biotechnology, Inc., Santa Cruz/CA, USA), and ß-actin (Sigma-Aldrich). Following incubation with the primary antibody, membranes were washed six times and incubated for 1 h at room temperature with the corresponding dilution of the appropriate secondary antibody conjugated with horseradish peroxidase (Upstate, Temecula, CA, USA). The immunoreactivity of respective proteins of interest was determined by chemiluminescence using the SuperSignal West Femto substrate (Pierce, IL, USA), in accordance with the manufacturer's instructions. […]

[2] = system: peripheral blood mononuclear cells (PBMC); assay: Metabolic activity assay (MTS), PBMC; format: cell-based, human; conditions: 50 µM, 24 h
Method: (§2) Compounds 11, and 14–16 were further tested for selective cytotoxicity. The experiments were conducted on freshly isolated primary peripheral blood mononuclear cells (PBMC) and three other haematological cancers: human T cell leukaemia (Jurkat), human histiocytic lymphoma (U937) and human Burkitt’s lymphoma (Daudi). An MTS assay was performed following 24 h of treatment with the compound of interest at 50 µM. […] The inhibition of proliferation in Ramos cells, mediated with compounds 15 and 16, was concentration dependent.
(§3) Cells (1×10^5 cells/mL for Ramos, Daudi, U937 and Jurkat, and 1×10^6 cells/mL for PBMC) were treated with the appropriate amounts of compounds of interest or corresponding vehicle (control cells), then seeded in triplicate in 96 well plates. The metabolic activity was assessed using the CellTiter 96® Aqueous One Solution Cell Proliferation Assay (Promega, Madison/WI, USA), in accordance with the manufacturer’s instructions.

[3] = system: p65 and p50 translocation in Ramos cells; assay: Subcellular fractionation and Western blot of p65 and p50; format: cell-based, human; conditions: 50 µM
Method: as §1

[4] = system: human T cell leukaemia (Jurkat); assay: Metabolic activity assay (MTS), Jurkat; format: cell-based; conditions: 50 µM, 24 h
Method: as §2, §3

[5] = system: NFκB transcriptional activity in Ramos-Blue cells; assay: Quanti-blue assay, NFκB transcriptional activity (SEAP reporter); format: cell-based, human; conditions: 50 µM pretreatment 1 h, TNF-α 100 ng/mL, 8 h
Method: Ramos-Blue™ cells (Invivogen), which stably express an NF-κB/AP-1-inducible secreted embryonic alkaline phosphate (SEAP) reporter construct, were assayed for NFκB transcriptional activity changes upon pretreating them with the compound of interest (50 µM) for 1 h and subsequently stimulating them with recombinant TNF-α (100 ng/mL). SEAP activity was determined in the supernatant in accordance with the manufacturer’s instructions. Briefly, to 200 µL of QUANTI-Blue regent 20 µL of cell supernatant was added and incubated at 37°C for 3 h. Abosorbance was measured on microplate reader Tecan Safire^2 at 640 nm.

Ramos cells = assay: Cell cycle analysis (PI staining); format: cell-based, human; conditions: for cell cycle distribution / percentage of cells in the sub-G1 phase (< 2n): 50 µM, 24 h; for percentage of cells in the sub-G1 phase (< 2n): PI staining; for number of hypodiploid cells: 48 h treatment, untreated 3.4%
Method: Ramos cells (5×10^5 cells) were treated with the compound of interest for 24 h. The cells were then washed with PBS and subjected to fixation with 80% ethanol at –20°C for 15 min. Fixated cells were pelleted by centrifugation and rehydrated in 5 mL of PBS for 15 min at room temperature. Collected cells were resuspended in 500 µL staining buffer (3 µM propidium iodide, 100 mM Tris, pH 7.4, 150 mM NaCl, 1 mM CaCl2, 0.5 mM MgCl2, 0.1% Nonident P-40). After 15 min of incubation, samples were analysed on a FACScalibur and evaluated using FlowJo software (BD bioscience, Franklin Lakes/NJ, USA).

[6] = system: human histiocytic lymphoma (U937); assay: Metabolic activity assay (MTS), U937; format: cell-based; conditions: U937, 50 µM, 24 h
Method: as §2, §3

[7] = target: T1, trypsin-like activity of human 20S proteasome (Homo sapiens, UniProt Q99436); assay: Proteasome activity measurement, trypsin-like; format: biochemical; conditions: for Ki: purified human 20S proteasome, Bz-Val-Gly-Arg-AMC, non-competitive
T1 construct: purchased Boston Biochem, Inc
Method: Suc-Leu-Leu-Val-Tyr-AMC, Bz-Val-Gly-Arg-AMC and Z-Leu-Leu-Glu-AMC (Bachem, Bubendorf, Switzerland) were used for the chymotrypsin-like, trypsin-like and caspase-like activites, respectively. Assay buffer consisted of TE buffer (20 mM Tris (pH = 8.0), 0.5 mM EDTA, 0.03% SDS). Substrate hydrolysis was continuously monitored at 37°C with an automated microplate reader (Tecan Safire^2). Measured fluorescence values (RFU) were plotted versus time with nonlinear regression to fit a Michaelis-Menten plot.
For the Ki determination, 25 µL of substrate at three concentrations and 25 µL of inhibitor of interest also at three different concentrations were added to the wells of a white microplate. The reaction was initiated with 50 µL of the enzyme in the assay buffer. Flourescence of the AMC release was continuously monitored at 420 nm with 320 nm excitation.
Km and Ki were calculated using SigmaPlot 11 (Enzyme Kinetics Module 1.3) and are presented as the mean of three independent experiments.

[8] = system: ubiquitinated proteins in Ramos cells; assay: Western blot analysis of ubiquitinated proteins; format: cell-based, human; conditions: 6 h treatment
Method: as §1

| SMILES | levels of p105 and IκBα (phosphorylated forms) [1] | residual metabolic activity relative to control [2] | translocation of p65 and p50 from the cytoplasm into the nucleus [3] | residual metabolic activity relative to control [4] | reduction of TNF-α-induced NFκB activity (SEAP) [5] | cell cycle distribution (Ramos cells) | percentage of cells in the sub-G1 phase (< 2n) (Ramos cells) [%] | number of hypodiploid cells (Ramos cells) [%] | residual metabolic activity relative to control [6] | Ki [7] [µM] | polyubiquitinated proteins [8] | mode of inhibition, trypsin-like activity ([7]; SigmaPlot 11) |
| --- | --- | --- | --- | --- | --- | --- | --- | --- | --- | --- | --- | --- |
| N=C(N)N1CCC(CN(NS(=O)(=O)c2ccc3ccccc3c2)C(=O)N2CCCCC2)CC1 [Compound 15] | accumulation of the phosphorylated forms of p105 and IκBα | no or only moderate decreases | no translocation of p65 and p50 | no or only moderate decreases | over 60% | accumulation of cells in the S phase | 8.7 | 42.5 | no or only moderate decreases | 13 |  |  |
| N=C(N)N1CCC(CN(NS(=O)(=O)c2ccc3ccccc3c2)C(=O)N2CCCCCC2)CC1 [Compound 16] |  | no or only moderate decreases |  | no or only moderate decreases | over 60% | accumulation of cells in the S phase | 22.7 | 51.1 | no or only moderate decreases | 17 | increased amount of polyubiquitinated proteins | non-competitive |
